Laboratory results taken from patent publication EP0554025A2, “Fluorinated cyclobutyl purines and pyrimidines” (E.R. SQUIBB & SONS, INC., priority 1992, dated 1993).
Read-outs that look alike come from different tables or passages of the source.

Legend:
Assay type in all cases: cell-based
[1] = tested on: HSV-1 (herpes simplex virus type 1, strain Schooler); test: HSV-1 plaque reduction antiviral assay in WI-38 cell culture monolayers; details: WI-38 cell monolayers, plaque reduction after 4 days incubation at 37°C, read-out: ID50 (μM) for the following viruses HSV-1
Procedure: (§1) Assays were performed in cell culture systems to determine the concentrations of compounds that are effective in preventing several kinds of viral infections. HSV-1 (herpes simplex virus type 1, strain Schooler), HSV-2 (herpes simplex virus type 2, strain 186), VZV (varicella zoster virus, strain ELLEN), HCMV (human cytomegalovirus, strain AD 169). HSV-1, HSV-2, HCMV, and VZV antiviral assays: Virus was adsorbed to WI-38 cell culture monolayers in 6 cell culture plates (Costar, Cambridge, MA) for 1 hour prior to addition of maintenance medium containing duplicate dilutions of the test compound. Inhibition of plaque development was evaluated on fixed and stained monolayers after 4 days incubation at 37°C for HSV-1 and HSV-2 and after 6-7 days incubation at 37°C for HCMV and VZV. ID50 values were determined from the drug concentration which conferred at least a 50% plaque reduction compared to virus controls.

[2] = tested on: HSV-2 (herpes simplex virus type 2, strain 186); test: HSV-2 plaque reduction antiviral assay in WI-38 cell culture monolayers; details: WI-38 cell monolayers, plaque reduction after 4 days incubation at 37°C, read-out: ID50 (μM) for the following viruses HSV-2
Procedure: as §1

[3] = tested on: VZV (varicella zoster virus, strain ELLEN); test: VZV plaque reduction antiviral assay in WI-38 cell culture monolayers; details: plaque reduction after 6-7 days incubation at 37°C, read-out: ID50 (μM) for the following viruses VZV
Procedure: as §1

[4] = tested on: HCMV (human cytomegalovirus, strain AD 169); test: HCMV plaque reduction antiviral assay in WI-38 cell culture monolayers; details: plaque reduction after 6-7 days incubation at 37°C, read-out: ID50 (μM) for the following viruses HCMV
Procedure: as §1

Nc1nc2c(ncn2C2CC(F)(CO)C2CO)c(=O)[nH]1 (stereo not drawn) [Product of Example 1, (1α,2β,3β)-2-Amino-9-[3-fluoro-2,3-bis(hydroxymethyl)cyclobutyl]-1,9-dihydro-6H-purin-6-one]
IC50 ([1]; Human alphaherpesvirus 1, 96 h): 0.35 to 0.7 µM | IC50 ([2]; Human alphaherpesvirus 2, 96 h): 0.35 to 0.7 µM | IC50 ([3]; Human alphaherpesvirus 3, WI-38 cell monolayers): 1.1 µM | IC50 ([4]; Human betaherpesvirus 5, WI-38 cell monolayers): 7 to 18 µM

Nc1nc2c(ncn2[C@H]2C[C@@](F)(CO)[C@@H]2O)c(=O)[nH]1 [Product of Example 2, (1 α,2β,3β)-2-Amino-9-[3-fluoro-2-hydroxy-3-(hydroxymethyl)cyclobutyl]-1,9-dihydro-6H-purin-6-one]
IC50 [1]: 37 to 93 µM | IC50 [2]: 37 to 93 µM | IC50 ([3]; WI-38 cell monolayers): 7 to 19 µM | IC50 ([4]; WI-38 cell monolayers): 37 µM
